{"source": "patent US20240208901A1", "about": "“Deuterated 3,3'-Diselenodipropionic Acid (DSePA) and Its Use as an Anticancer or Radioprotective Agent” (Secretary, Department of Atomic Energy, priority 2022, published 2024)", "key": {"A549 cells": {"test_system": "A549 cells", "experiment": "Clonogenic assay, combinatorial treatment with γ-irradiation in A549 cells", "type": "cell-based, human", "description": "Further, clonogenic assay is considered as the gold standard method for evaluating the anticancer activity of any compound and is also a good indicator of the in vivo efficacy of any anticancer compound. Therefore, the therapeutic index of DSePA and D-DSePA in A549/WI-38 cells was also validated by employing the clonogenic assay. For this, A549/WI-38 cells were treated with the varying concentrations (0.1-2 μM)/(1-500 μM) of DSePA/D-DSePA for seven days and the survival fraction was calculated by counting the number of surviving clones (FIG. 11A). The plot of survival fraction verses the concentration of DScPA/D-DSCPA was used to estimate the IC50 of above compounds to inhibit the growth of A549/WI-38 cells. […] This clearly confirmed that deuteration of DScPA reduced its toxicity in normal cells without compromising its efficacy in cancer cells. Since anticancer agents are intended to be used in combination with radiation, DSePA/D-DSePA at a treatment concentration of 0.5 μM (dose close to IC50 as determined by clonogenic assay) was combined with varying absorbed doses (2-8 Gy) of γ-irradiation and the effect of combinatorial treatment on the viability of A549 cells was determined by clonogenic assay (FIG. 12A & 12B). For this, A549 cells exposed to the varying absorbed doses (2-8 Gy) of γ-radiation were immediately treated with DScPA/D-DScPA and cultured for seven days prior to clonogenic assay. […] The D10 value of the combinatorial treatment involving DScPA estimated was 4.5 Gy (FIG. 12B). Similarly, D10 value of the combinatorial treatment involving D-DSePA estimated was 4 Gy. From these values, the dose modification factor (DMF or the ratio of the D10 of combinatorial treatment to that of D10 of radiation) of DScPA and D-DScPA estimated was 0.87±0.01 and 0.83±0.02 respectively. […] While the objective of radiotherapy is to achieve tumor control, it is also known to cause normal tissue toxicity. Previously, DSePA has been reported to protect normal cells from lethal effects of γ-radiation. Thus radio-protective activity of D-DSePA was compared with DScPA in terms of their abilities to protect non-cancerous lung fibroblast (WI-38) cells against γ-irradiation induced cell death. For this, WI-38 cells were pretreated with DSePA/D-DScPA for 24 h at an identical concentration of 0.5 μM (close to IC50 required to inhibit growth of A549 lung cancer cells by clonogenic assay) and then exposed to varying doses (2-12 Gy) of γ-irradiation. The survival of cells against radiation exposure was estimated by clonogenic assay and the dose response curve was prepared in the presence and absence of drug (DSePA/D-DScPA) (FIG. 12C & 12D). By using this dose response curve, the dose modification factor (DMF or the ratio of the D10 of radiation plus drug and D10 of radiation alone) of DSePA and D-DSePA estimated was 1.12±0.03 and 1.16±0.05 respectively.\n(§1) Clonogenic assay—Clonogenic assay was performed according to the method reported previously. […] After 7 days, colonies were fixed with absolute methanol for 5 min, stained with 0.5% crystal violet for 5 min, washed with distilled water to remove excess stain and counted manually under a stereo microscope. […] The plating efficiency and the survival fraction under irradiated and drug treated conditions were calculated using following formulae: […]\n(§2) The plating efficiency of A549 and WI38 cells was calculated by seeding ˜300 and ˜500 cells respectively. […]"}, "WI-38 cells": {"test_system": "WI-38 cells", "experiment": "Clonogenic assay, radioprotection of WI-38 cells against γ-irradiation", "type": "cell-based, human", "settings": "γ-irradiation 2-12 Gy", "description": "Further, clonogenic assay is considered as the gold standard method for evaluating the anticancer activity of any compound and is also a good indicator of the in vivo efficacy of any anticancer compound. Therefore, the therapeutic index of DSePA and D-DSePA in A549/WI-38 cells was also validated by employing the clonogenic assay. For this, A549/WI-38 cells were treated with the varying concentrations (0.1-2 μM)/(1-500 μM) of DSePA/D-DSePA for seven days and the survival fraction was calculated by counting the number of surviving clones (FIG. 11A). The plot of survival fraction verses the concentration of DScPA/D-DSCPA was used to estimate the IC50 of above compounds to inhibit the growth of A549/WI-38 cells. […] This clearly confirmed that deuteration of DScPA reduced its toxicity in normal cells without compromising its efficacy in cancer cells. Since anticancer agents are intended to be used in combination with radiation, DSePA/D-DSePA at a treatment concentration of 0.5 μM (dose close to IC50 as determined by clonogenic assay) was combined with varying absorbed doses (2-8 Gy) of γ-irradiation and the effect of combinatorial treatment on the viability of A549 cells was determined by clonogenic assay (FIG. 12A & 12B). For this, A549 cells exposed to the varying absorbed doses (2-8 Gy) of γ-radiation were immediately treated with DScPA/D-DScPA and cultured for seven days prior to clonogenic assay. […] The D10 value of the combinatorial treatment involving DScPA estimated was 4.5 Gy (FIG. 12B). […]\nas §1, §2"}, "[1]": {"test_system": "lung cancer cell lines (A549, H1975 and H3122) versus normal lung cells (WI-38 and WI-26 VA4)", "experiment": "Therapeutic index by MTT assay, lung cancer cell lines versus normal lung cells", "type": "cell-based, human", "settings": "for Therapeutic Index (IC50 in normal cell / IC50 in cancer cells): 48 h post-treatment", "description": "Therefore, D-DSePA was compared with un-deuterated DSePA for its anticancer activity in A549, H1975 and H3122 cell lines which are representative of NSCLC. For this, above cells were treated with the varying concentrations (0.1-100 μM) of DSePA/D-DSePA for 48 h and the cell viability was determined by MTT assay (FIG. 9A-C). The plot of percent (%) cytotoxicity (100-% viability) versus the concentration of DSePA/D-DSePA was used to estimate the half maximum concentration (IC50) of above compounds to inhibit the proliferation of cells. […] Similarly, the toxicity of DSePA/D-DSePA was studied in non-cancerous lung fibroblast cells, WI-38 and WI-26 VA4 in the concentration range of 0.1 to 1000 μM at 48 h post treatment by MTT assay (FIG. 9D and 9E). […] Employing these values, the therapeutic index (IC50 in normal lung cell/IC50 in lung cancer cell) of DSePA and D-DSePA in different pairs of normal versus cancerous cells (viz., A549/WI-38, A549/WI-26 VA4, H1975/WI-38, H1975/WI-26 VA4, H3122/WI-38 and H3122/WI-26 VA4) was calculated (Table-3). […] The average therapeutic index of DSePA and D-DSePA estimated from above study was 11.05±1.5 and 78.7±29.2 respectively (FIG. 10).\nMTT Assay—To evaluate the anti-proliferative effect of D-DScPA and DScPA, Cells (˜5×10^3) suspended in 100 μl of complete culture medium were seeded in each well of 96 well plates. The cells were allowed to attach and grow for 24 h, treated with desired concentrations of D-DSePA/DScPA dissolved in culture medium for 48 h and then processed for MTT assay as described in literature. The percentage (%) cytotoxicity was calculated from the decrease in absorbance at 570 nm of treated groups as compared to that of control group. The % cytotoxicity was plotted as a function of the concentration of D-DSePA and DSePA and from this curve, the concentration of D-DSePA/DScPA causing 50% toxicity (IC50) was estimated. The therapeutic index was calculated by normalizing the IC50 concentration of D-DSePA/DSePA in non-cancerous cells to that in cancerous cells."}, "[2]": {"test_system": "non-cancerous human lung fibroblast cells (WI-38 & WI-26 VA4)", "experiment": "MTT assay, non-cancerous human lung fibroblast cells (summary statement)", "type": "cell-based", "settings": "WI-38 & WI-26 VA4 cells", "excerpt": "3,3′-Disclenodipropionic acid-D8 (D-DSePA, chemical structure shown in FIG. 1) was synthesized by reacting freshly prepared sodium selenide (Na2Se2) and 3-bromopropionic acid-D4 in D2O solvent with 42% yield. The synthesized D-DSePA was purified and characterized by NMR spectroscopy and mass spectrometry. The molecular structure of D-DSePA has been established by single-crystal X-ray diffraction analysis. The treatment of D-DSePA and un-deuterated DSePA inhibited the growth of human NSCLC cells such as A549, H1975 and H3122 with half maximum concentration (IC50) in the range of 5-50 μM by MTT assay. […] Finally, at identical treatment concentration, D-DSePA offered better radioprotection to non-cancerous WI38 cells with a dose modification factor (DMF) of 1.16±0.05 as compared to un-deuterated DScPA with DMF of 1.12±0.03.\nMTT Assay—To evaluate the anti-proliferative effect of D-DScPA and DScPA, Cells (˜5×10^3) suspended in 100 μl of complete culture medium were seeded in each well of 96 well plates. […] The percentage (%) cytotoxicity was calculated from the decrease in absorbance at 570 nm of treated groups as compared to that of control group. […] The therapeutic index was calculated by normalizing the IC50 concentration of D-DSePA/DSePA in non-cancerous cells to that in cancerous cells."}}, "data": [{"smiles": "[2H]C([2H])([Se][Se]C([2H])([2H])C([2H])([2H])C(=O)O)C([2H])([2H])C(=O)O", "note": "[D-DSePA, 3,3′-diselenodipropionic acid-D8]", "values": [{"measurement": "dose modification factor (DMF, D10 of combinatorial treatment / D10 of radiation)", "setting": "A549 cells; 0.5 μM drug immediately after γ-radiation (2-8 Gy)", "result": "0.83±0.02"}, {"measurement": "effect on radiation kill of lung cancer cells", "setting": "A549 cells; 0.5 μM with γ-radiation 2-8 Gy", "result": "did not protect lung cancer cells from radiation kill"}, {"measurement": "D10 value (decimal reduction dose) of the combinatorial treatment", "setting": "A549 cells; γ-radiation 2-8 Gy then 0.5 μM drug immediately, seven days, radiation alone D10 5 Gy", "result": 4, "unit": "Gy"}, {"measurement": "dose modification factor (DMF, D10 of radiation plus drug / D10 of radiation alone)", "setting": "WI-38 cells; WI-38 cells pretreated 24 h with 0.5 μM drug, clonogenic assay", "result": "1.16±0.05"}, {"measurement": "radioprotective activity in normal lung cells", "setting": "WI-38 cells; WI-38 cells, 0.5 μM 24 h pre-treatment", "result": "exhibited radioprotective activity in normal lung cells"}, {"measurement": "Therapeutic Index (IC50 in normal cell / IC50 in cancer cells)", "setting": "[1]; A549/WI-26 VA4, MTT assay", "result": "36.2 ± 1.9"}, {"measurement": "Therapeutic Index (IC50 in normal cell / IC50 in cancer cells)", "setting": "[1]; A549/WI-38, MTT assay", "result": "65.7 ± 3.3"}, {"measurement": "Therapeutic Index (IC50 in normal cell / IC50 in cancer cells)", "setting": "[1]; H1975/WI-26 VA4, MTT assay", "result": "119.6 ± 5.9"}, {"measurement": "Therapeutic Index (IC50 in normal cell / IC50 in cancer cells)", "setting": "[1]; H1975/WI-38, MTT assay", "result": "217.4 ± 10.9"}, {"measurement": "Therapeutic Index (IC50 in normal cell / IC50 in cancer cells)", "setting": "[1]; H3122/WI-26 VA4, MTT assay", "result": "11.8 ± 0.6"}, {"measurement": "Therapeutic Index (IC50 in normal cell / IC50 in cancer cells)", "setting": "[1]; H3122/WI-38, MTT assay", "result": "21.5 ± 1.0"}, {"measurement": "average therapeutic index", "setting": "[1]; mean of six normal/cancer cell pairs, mean±SEM (n=6), MTT assay", "result": "78.7±29.2"}, {"measurement": "higher therapeutic index as compared to un-deuterated DSePA", "setting": "[1]; non-cancerous lung fibroblast versus NSCLC (A549, H1975 and H3122)", "result": "~7", "unit": "folds"}, {"measurement": "IC50 higher as compared to un-deuterated DSePA", "setting": "[2]", "result": "4 to 5", "unit": "times"}]}]}
